Results: US10206394B2, “Herbicidal compounds” (Syngenta Participations AG, priority 2014, dated 2019)
Like-named read-outs stand apart in the source and are kept apart here.

Legend:
Test in all cases: Glasshouse assay for herbicidal activity (pre- and post-emergence), percentage phytotoxicity
Type in all cases: in vivo
[1] = test system: Echinochloa crus-galli (ECHCG); conditions: Echinochloa crus-galli
Procedure, shortened: (§1)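 Pot-grown plants treated one day after sowing (pre-emergence) or at about 12 days (post-emergence); glasshouse at 24/18° C (warm) or 20/16° C (cool species) day/night, 16 h light, 65% humidity. Visual % phytotoxicity (0 = none, 100 = total damage) scored at 15 DAA post or 20 DAA pre.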

[2] = test system: Alopecurus myosuroides (ALOMY); conditions: Alopecurus myosuroides
Procedure, shortened: as §1

Lolium perenne (LOLPE) = conditions: Lolium perenne
Procedure, shortened: as §1

Avena fatua (AVEFA) = conditions: Avena fatua
Procedure, shortened: as §1

[3] = post-emergence, 360 h, 250 g/ha, post-emergence, 15 DAA, visual assessment (100%=total damage, 0%=no damage), read-out: Post-emergence herbicidal activity (percentage phytotoxicity) ECHCG POST
[4] = pre-emergence, 480 h, 250 g/ha, pre-emergence, 20 DAA, visual assessment (100%=total damage, 0%=no damage), read-out: Pre-emergence herbicidal activity (percentage phytotoxicity) ECHCG PRE
[5] = post-emergence, 360 h, 250 g/ha, post-emergence, 15 DAA, visual assessment (100%=total damage, 0%=no damage), read-out: Post-emergence herbicidal activity (percentage phytotoxicity) ALOMY POST
[6] = pre-emergence, 480 h, 250 g/ha, pre-emergence, 20 DAA, visual assessment (100%=total damage, 0%=no damage), read-out: Pre-emergence herbicidal activity (percentage phytotoxicity) ALOMY PRE
[7] = post-emergence, 360 h, 250 g/ha, post-emergence, 15 DAA, visual assessment (100%=total damage, 0%=no damage), read-out: Post-emergence herbicidal activity (percentage phytotoxicity) LOLPE POST
[8] = pre-emergence, 480 h, 250 g/ha, pre-emergence, 20 DAA, visual assessment (100%=total damage, 0%=no damage), read-out: Pre-emergence herbicidal activity (percentage phytotoxicity) LOLPE PRE
[9] = post-emergence, 360 h, 250 g/ha, post-emergence, 15 DAA, visual assessment (100%=total damage, 0%=no damage), read-out: Post-emergence herbicidal activity (percentage phytotoxicity) AVEFA POST
[10] = pre-emergence, 480 h, 250 g/ha, pre-emergence, 20 DAA, visual assessment (100%=total damage, 0%=no damage), read-out: Pre-emergence herbicidal activity (percentage phytotoxicity) AVEFA PRE

C/C=C/CNC(=O)CC1CC(=O)C(c2c(C)cc(C)cc2C)C1=O (stereo not shown) [Compound B47]
pest or weed control at 250 g/ha [1, 3]: 90% | pest or weed control at 250 g/ha [1, 4]: 90% | pest or weed control at 250 g/ha [2, 5]: 90% | pest or weed control at 250 g/ha [2, 6]: 90% | pest or weed control at 250 g/ha (Lolium perenne (LOLPE); [7]): 90% | pest or weed control at 250 g/ha (Lolium perenne (LOLPE); [8]): 100% | pest or weed control at 250 g/ha (Avena fatua (AVEFA); [9]): 80% | pest or weed control at 250 g/ha (Avena fatua (AVEFA); [10]): 60%

CC#Cc1cc(C)c(C2C(=O)CC(CC(=O)NCc3ccc(C#N)cc3)C2=O)c(C)c1 (stereo not shown) [Compound B186]
pest or weed control at 250 g/ha ([1]; post-emergence, 360 h, POST-emergence, rate 250 g/ha, visual score 15 DAA (100%=total damage, 0%=no damage), read-out: Post-emergence herbicidal activity (percentage phytotoxicity) ECHCG POST): 100% | pest or weed control at 250 g/ha ([1]; pre-emergence, 480 h, PRE-emergence, rate 250 g/ha, visual score 20 DAA (100%=total damage, 0%=no damage), read-out: Pre-emergence herbicidal activity (percentage phytotoxicity) ECHCG PRE): 100% | pest or weed control at 250 g/ha ([2]; post-emergence, 360 h, POST-emergence, rate 250 g/ha, visual score 15 DAA (100%=total damage, 0%=no damage), read-out: Post-emergence herbicidal activity (percentage phytotoxicity) ALOMY POST): 90% | pest or weed control at 250 g/ha ([2]; pre-emergence, 480 h, PRE-emergence, rate 250 g/ha, visual score 20 DAA (100%=total damage, 0%=no damage), read-out: Pre-emergence herbicidal activity (percentage phytotoxicity) ALOMY PRE): 90% | pest or weed control at 250 g/ha (Lolium perenne (LOLPE); post-emergence, 360 h, POST-emergence, rate 250 g/ha, visual score 15 DAA (100%=total damage, 0%=no damage), read-out: Post-emergence herbicidal activity (percentage phytotoxicity) LOLPE POST): 90% | pest or weed control at 250 g/ha (Lolium perenne (LOLPE); pre-emergence, 480 h, PRE-emergence, rate 250 g/ha, visual score 20 DAA (100%=total damage, 0%=no damage), read-out: Pre-emergence herbicidal activity (percentage phytotoxicity) LOLPE PRE): 90% | pest or weed control at 250 g/ha (Avena fatua (AVEFA); post-emergence, 360 h, POST-emergence, rate 250 g/ha, visual score 15 DAA (100%=total damage, 0%=no damage), read-out: Post-emergence herbicidal activity (percentage phytotoxicity) AVEFA POST): 90% | pest or weed control at 250 g/ha (Avena fatua (AVEFA); pre-emergence, 480 h, PRE-emergence, rate 250 g/ha, visual score 20 DAA (100%=total damage, 0%=no damage), read-out: Pre-emergence herbicidal activity (percentage phytotoxicity) AVEFA PRE): 100%

Cc1cc(-c2ccc(Cl)cn2)cc(C)c1C1C(=O)CC(CC(=O)NC(C)(C)C)C1=O (stereo not shown) [Compound A41]
pest or weed control at 250 g/ha ([1]; post-emergence, 360 h, Rate 250 g/ha, post-emergence, assessed visually 15 DAA, 100%=total damage, 0%=no damage, read-out: Post-emergence herbicidal activity (percentage phytotoxicity) ECHCG POST): 100% | pest or weed control at 250 g/ha ([1]; pre-emergence, 480 h, Rate 250 g/ha, pre-emergence, assessed visually 20 DAA, 100%=total damage, 0%=no damage, read-out: Pre-emergence herbicidal activity (percentage phytotoxicity) ECHCG PRE): 100% | pest or weed control at 250 g/ha ([2]; post-emergence, 360 h, Rate 250 g/ha, post-emergence, assessed visually 15 DAA, 100%=total damage, 0%=no damage, read-out: Post-emergence herbicidal activity (percentage phytotoxicity) ALOMY POST): 100% | pest or weed control at 250 g/ha ([2]; pre-emergence, 480 h, Rate 250 g/ha, pre-emergence, assessed visually 20 DAA, 100%=total damage, 0%=no damage, read-out: Pre-emergence herbicidal activity (percentage phytotoxicity) ALOMY PRE): 100% | pest or weed control at 250 g/ha (Lolium perenne (LOLPE); post-emergence, 360 h, Rate 250 g/ha, post-emergence, assessed visually 15 DAA, 100%=total damage, 0%=no damage, read-out: Post-emergence herbicidal activity (percentage phytotoxicity) LOLPE POST): 100% | pest or weed control at 250 g/ha (Lolium perenne (LOLPE); pre-emergence, 480 h, Rate 250 g/ha, pre-emergence, assessed visually 20 DAA, 100%=total damage, 0%=no damage, read-out: Pre-emergence herbicidal activity (percentage phytotoxicity) LOLPE PRE): 100% | pest or weed control at 250 g/ha (Avena fatua (AVEFA); post-emergence, 360 h, Rate 250 g/ha, post-emergence, assessed visually 15 DAA, 100%=total damage, 0%=no damage, read-out: Post-emergence herbicidal activity (percentage phytotoxicity) AVEFA POST): 100% | pest or weed control at 250 g/ha (Avena fatua (AVEFA); pre-emergence, 480 h, Rate 250 g/ha, pre-emergence, assessed visually 20 DAA, 100%=total damage, 0%=no damage, read-out: Pre-emergence herbicidal activity (percentage phytotoxicity) AVEFA PRE): 70%

Cc1cc(C)c(C2C(=O)CC(CC(=O)NCC3(F)COC3)C2=O)c(C)c1 (stereo not shown) [Compound A180]
pest or weed control at 250 g/ha ([1]; post-emergence, 360 h, post-emergence, 250 g/ha, 15 DAA, visual score (100%=total damage; 0%=no damage), read-out: ECHCG POST herbicidal activity (percentage phytotoxicity)): 70% | pest or weed control at 250 g/ha ([1]; pre-emergence, 480 h, pre-emergence, 250 g/ha, 20 DAA, visual score (100%=total damage; 0%=no damage), read-out: ECHCG PRE herbicidal activity (percentage phytotoxicity)): 20% | pest or weed control at 250 g/ha ([2]; post-emergence, 360 h, post-emergence, 250 g/ha, 15 DAA, visual score (100%=total damage; 0%=no damage), read-out: ALOMY POST herbicidal activity (percentage phytotoxicity)): 70% | pest or weed control at 250 g/ha ([2]; pre-emergence, 480 h, pre-emergence, 250 g/ha, 20 DAA, visual score (100%=total damage; 0%=no damage), read-out: ALOMY PRE herbicidal activity (percentage phytotoxicity)): 40% | pest or weed control at 250 g/ha (Lolium perenne (LOLPE); post-emergence, 360 h, post-emergence, 250 g/ha, 15 DAA, visual score (100%=total damage; 0%=no damage), read-out: LOLPE POST herbicidal activity (percentage phytotoxicity)): 30% | pest or weed control at 250 g/ha (Lolium perenne (LOLPE); pre-emergence, 480 h, pre-emergence, 250 g/ha, 20 DAA, visual score (100%=total damage; 0%=no damage), read-out: LOLPE PRE herbicidal activity (percentage phytotoxicity)): 0% | pest or weed control at 250 g/ha (Avena fatua (AVEFA); post-emergence, 360 h, post-emergence, 250 g/ha, 15 DAA, visual score (100%=total damage; 0%=no damage), read-out: AVEFA POST herbicidal activity (percentage phytotoxicity)): 70% | pest or weed control at 250 g/ha (Avena fatua (AVEFA); pre-emergence, 480 h, pre-emergence, 250 g/ha, 20 DAA, visual score (100%=total damage; 0%=no damage), read-out: AVEFA PRE herbicidal activity (percentage phytotoxicity)): 0%

Cc1cc(-c2ncc(F)cc2F)cc(C)c1C1C(=O)CC(CC(=O)NCc2cccc(F)c2)C1=O (stereo not shown) [Compound B70]
pest or weed control at 250 g/ha [1, 3]: 100% | pest or weed control at 250 g/ha [1, 4]: 100% | pest or weed control at 250 g/ha [2, 5]: 100% | pest or weed control at 250 g/ha [2, 6]: 80% | pest or weed control at 250 g/ha (Lolium perenne (LOLPE); [7]): 100% | pest or weed control at 250 g/ha (Lolium perenne (LOLPE); [8]): 90% | pest or weed control at 250 g/ha (Avena fatua (AVEFA); [9]): 100% | pest or weed control at 250 g/ha (Avena fatua (AVEFA); [10]): 80%
